This passage reports IC50 results from patent publication US8586591B2, “Aminopyrazine derivative and medicine” (Nippon Shinyaku Co., Ltd., priority 2009, dated 2013).

SMILES strings stand for the structures. Where a name gives a salt, the structure may show the parent alone.

For one experiment, the target named is T1, JAK2 tyrosine kinase (Homo sapiens, UniProt O60674).
T1 construct: purchased Carnabioscience Co
In words: Test 1: inhibitory activity to JAK2 tyrosine kinase (ELISA). The format is biochemical. Particulars: 25 μM ATP in substrate solution, 30° C. for 1 hour, n=2. On the procedure: Test 1: Test for inhibitory activity to JAK2 and JAK3 tyrosine kinase 1. Preparation of Test Material
The test material was dissolved in dimethylsulfoxide (DMSO) to be 10 mM, and further diluted with DMSO to be 100-fold concentrations for measurement (1000, 300, 100, 30, 10, 3, 1, 0.3, 0.1, 0.03, 0.01 μM). In addition, solutions diluted with an assay buffer up to 20 times were used as solutions of the test material. As a negative control, a solution of DMSO diluted 20 times with an assay buffer was used. As the assay buffer, 15 mM Tris-Cl (pH 7.5), 0.01 v/v % Tween-20, and 1 mM dithiothreitol were used.
2. Measurement of the Activities of JAK2 and JAK3 Tyrosine Kinases
The activity was determined by ELISA. The solution of the test material (10 μl each; n=2) was placed in a streptavidine-coated 96 well plate (DELFIA Strip Plate 8×12 wells; Perkin Elmer), to which 20 μl each of substrate solution (625 nM biotin-labeled peptide substrate, 25 μM ATP, 25 mM MgCl2, 15 mM Tris-Cl (pH 7.5), 0.01 v/v % Tween-20, and 1 mM dithiothreitol), was added and stirred. Finally, 20 μl each of JAK2 tyrosine kinase (Carnabioscience Co.) (diluted to 0.75 nM with assay buffer) or JAK3 tyrosine kinase (Carnabioscience Co.) (diluted to 0.75 nM with assay buffer) was added, stirred and allowed to stand at 30° C. for 1 hour. The plate was washed 4 times with a washing buffer (50 mM Tris-Cl, pH 7.5, 150 mM NaCl, 0.02 v/v % Tween-20), and then a blocking buffer (0.1% Bovine Serum Albumin, 50 mM Tris-Cl, pH 7.5, 150 mM NaCl, 0.02 v/v % Tween-20)(150 μl each) was added for blocking at 30° C. for 30 minutes. Blocking buffer was removed, and there was added 100 μl each of horse radish peroxidase-labeled anti-phosphorylated tyrosin kinase antibody (BD Bioscience Co.) (diluted 10,000 times with blocking buffer). The plate was incubated at 30° C. for 30 minutes and then washed 4 times with a washing buffer, and 100 μl each of 3,3′,5,5′-tetramethylbenzidine (Sigma-Aldrich Co.) was added to develop color for 10 minutes. 0.1 M sulfuric acid (100 μl each) was added to stop the reaction. The absorbance was measured by means of a micro-plate reader (BIO-RAD; Model 3550) at 450 nm.
3. Analysis of the Results of the Measurement
The measured absorbance was subjected to a non-linear regression analysis by means of a SAS system (SAS Institute Inc.), and the concentration (IC50) of the test material which inhibited 50% of the activity of each tyrosine kinase was estimated.
In general terms: ELISA stands for enzyme-linked immunosorbent assay.

The next experiment addresses T2, JAK3 tyrosine kinase (Homo sapiens, UniProt P52333).
T2 construct: purchased Carnabioscience Co
T2 sequence (P52333 1-1124): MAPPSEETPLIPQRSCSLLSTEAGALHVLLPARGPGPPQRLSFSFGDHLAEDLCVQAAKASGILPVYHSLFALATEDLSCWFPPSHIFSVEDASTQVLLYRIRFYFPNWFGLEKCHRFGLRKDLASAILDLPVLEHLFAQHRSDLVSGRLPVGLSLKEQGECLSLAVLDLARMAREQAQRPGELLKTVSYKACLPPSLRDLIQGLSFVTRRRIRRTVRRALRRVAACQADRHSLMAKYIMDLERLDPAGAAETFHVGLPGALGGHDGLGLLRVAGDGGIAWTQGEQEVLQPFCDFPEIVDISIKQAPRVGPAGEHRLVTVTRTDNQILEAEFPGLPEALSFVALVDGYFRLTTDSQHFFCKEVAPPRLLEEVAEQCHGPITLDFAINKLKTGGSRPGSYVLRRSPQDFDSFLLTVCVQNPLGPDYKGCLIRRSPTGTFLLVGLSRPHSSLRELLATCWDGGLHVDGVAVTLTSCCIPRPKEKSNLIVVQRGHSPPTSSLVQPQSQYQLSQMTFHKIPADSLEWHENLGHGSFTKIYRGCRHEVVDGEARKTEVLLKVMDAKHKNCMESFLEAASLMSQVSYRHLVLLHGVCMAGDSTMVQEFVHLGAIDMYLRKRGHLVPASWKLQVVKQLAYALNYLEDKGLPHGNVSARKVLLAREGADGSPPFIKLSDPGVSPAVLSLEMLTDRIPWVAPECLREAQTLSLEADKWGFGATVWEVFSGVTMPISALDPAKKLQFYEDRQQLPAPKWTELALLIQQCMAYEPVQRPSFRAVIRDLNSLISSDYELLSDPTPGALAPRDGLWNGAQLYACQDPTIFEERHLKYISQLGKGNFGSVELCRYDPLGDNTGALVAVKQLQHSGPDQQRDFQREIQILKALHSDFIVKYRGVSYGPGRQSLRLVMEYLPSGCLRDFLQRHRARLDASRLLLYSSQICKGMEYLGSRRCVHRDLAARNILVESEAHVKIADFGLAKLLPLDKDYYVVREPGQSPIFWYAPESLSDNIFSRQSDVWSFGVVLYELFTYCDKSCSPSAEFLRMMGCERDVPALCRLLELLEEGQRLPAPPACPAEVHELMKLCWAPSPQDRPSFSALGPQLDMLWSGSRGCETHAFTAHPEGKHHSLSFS
In words: Test 1: inhibitory activity to JAK3 tyrosine kinase (ELISA). The experiment is classed as biochemical. As to conditions: 25 μM ATP in substrate solution, 30° C. for 1 hour, n=2. The method in brief:
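ELISA of JAK3 kinase activity with absorbance read at 450 nm. Compounds were tested from DMSO dilution series at 100-fold the measurement concentrations (1000–0.01 μM), diluted up to 20 times in assay buffer, against a DMSO negative control. IC50 was estimated by non-linear regression of absorbance.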

T1 sequence (O60674 whole entry): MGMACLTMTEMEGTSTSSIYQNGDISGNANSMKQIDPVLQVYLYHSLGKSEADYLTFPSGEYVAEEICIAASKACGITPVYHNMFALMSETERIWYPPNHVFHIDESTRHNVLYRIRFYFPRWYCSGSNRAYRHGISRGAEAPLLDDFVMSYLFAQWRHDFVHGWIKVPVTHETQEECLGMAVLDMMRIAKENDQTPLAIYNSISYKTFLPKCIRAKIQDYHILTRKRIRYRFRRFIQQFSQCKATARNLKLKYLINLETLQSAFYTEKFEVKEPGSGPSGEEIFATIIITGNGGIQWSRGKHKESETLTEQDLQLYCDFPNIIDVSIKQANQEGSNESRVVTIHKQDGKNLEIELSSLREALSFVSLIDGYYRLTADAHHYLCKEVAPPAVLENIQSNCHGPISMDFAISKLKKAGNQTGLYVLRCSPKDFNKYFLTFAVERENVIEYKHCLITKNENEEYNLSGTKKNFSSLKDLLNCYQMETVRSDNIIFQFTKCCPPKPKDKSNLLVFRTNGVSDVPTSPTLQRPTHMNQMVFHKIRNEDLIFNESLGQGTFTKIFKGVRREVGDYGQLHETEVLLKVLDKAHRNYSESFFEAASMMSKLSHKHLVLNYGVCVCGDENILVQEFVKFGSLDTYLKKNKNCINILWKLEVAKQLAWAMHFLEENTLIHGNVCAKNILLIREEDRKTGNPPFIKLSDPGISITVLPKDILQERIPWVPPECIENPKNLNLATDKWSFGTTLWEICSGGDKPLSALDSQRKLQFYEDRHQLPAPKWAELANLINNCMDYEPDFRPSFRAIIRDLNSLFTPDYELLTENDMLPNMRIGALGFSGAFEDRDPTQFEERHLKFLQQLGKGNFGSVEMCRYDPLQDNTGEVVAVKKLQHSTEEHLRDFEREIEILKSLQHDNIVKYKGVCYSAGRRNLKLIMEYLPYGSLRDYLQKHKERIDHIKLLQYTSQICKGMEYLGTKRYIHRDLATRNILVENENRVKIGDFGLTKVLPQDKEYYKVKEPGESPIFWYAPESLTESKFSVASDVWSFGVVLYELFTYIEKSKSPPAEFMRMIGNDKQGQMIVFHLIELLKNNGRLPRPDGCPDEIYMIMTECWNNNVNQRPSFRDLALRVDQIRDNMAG

Take `C[C@H](Nc1nc(Nc2cnccn2)cc(-c2cccnc2)n1)c1ccc(F)cc1` [Example 32, (S)—N^2-[1-(4-Fluorophenyl)ethyl]-N^4-(pyrazin-2-yl)-6-(pyridin-3-yl)pyrimidine-2,4-diamine ½ maleate]: the IC50 (as a rule, the concentration that gives 50% inhibition) on JAK2 tyrosine kinase was found to be 0.5 nM; on JAK3 tyrosine kinase, 68 nM.
The matching figures for `CC(=O)N[C@H]1CCN(c2cc(Nc3cnccn3)nc(N[C@@H](C)c3ccc(F)cc3)n2)C1` [Example 33, N-{(S)-1-[2-{[(S)-1-(4-Fluorophenyl)ethyl]amino}-6-(pyrazin-2-ylamino)pyrimidin-4-yl]pyrrolidin-3-yl}acetamide maleate]: 0.4 nM and 30 nM.
For `C[C@H](Nc1nc(Nc2cnccn2)cc(-c2cn[nH]c2)n1)c1ccc(F)cc1` [Example 34, (S)—N^2-[1-(4-Fluorophenyl)ethyl]-N^4-(pyrazin-2-yl)-6-(1H-pyrazol-4-yl)pyrimidine-2,4-diamine maleate], the half-maximal inhibitory concentration (IC50) is 0.51 nM on JAK2 tyrosine kinase and 59 nM at JAK3 tyrosine kinase.
For `C[C@H](Nc1nc(Nc2cnccn2)cc(-c2cccc(S(C)(=O)=O)c2)n1)c1ccc(F)cc1` [Example 35, (S)—N^2-[1-(4-Fluorophenyl)ethyl]-6-[3-(methylsulfonyl)phenyl]-N^4-(pyrazin-2-yl) yrimidine-2,4-diamine hydrochloride], in that order: 2.5 nM and 440 nM.
For `C[C@H](Nc1cc(-c2ccc(S(C)(=O)=O)cc2)cc(Nc2cnccn2)n1)c1ccc(F)cc1` [Example 36, (S)—N^2-[1-(4-Fluorophenyl)ethyl]-4-[4-(methylsulfonyl)phenyl]-N^6-(pyrazin-2-yl)pyridine-2,6-diamine hydrochloride], in that order: 2.8 nM and 200 nM.
The matching figures for `CC(C)n1cc(-c2cc(Nc3cnccn3)nc(N[C@@H](C)c3ccc(F)cc3)c2)cn1` [Example 37, (S)—N^2-[1-(4-Fluorophenyl)ethyl]-4-(1-isopropyl-1H-pyrazol-4-yl)-N^6-(pyrazin-2-yl)pyridine-2,6-diamine hydrochloride]: 3.2 nM and 130 nM.
Take `CC(=O)N[C@H]1CCN(c2cc(Nc3cnccn3)nc(N[C@@H](C)c3ccc(F)cc3)c2)C1` [Example 38, N-{(S)-1-[2-{[(S)-1-(4-Fluorophenyl)ethyl]amino}-6-(pyrazin-2-ylamino)pyridin-4-yl]pyrrolidin-3-yl}acetamide hydrochloride]: the IC50 against JAK2 tyrosine kinase was 2.3 nM; against JAK3 tyrosine kinase it was 85 nM.
The matching figures for `C[C@H](Nc1cc(N2CCOCC2)cc(Nc2cnccn2)n1)c1ccc(F)cc1` [Example 39, (S)—N^2-[1-(4-Fluorophenyl)ethyl]-4-morpholine-N^6-(pyrazin-2-yl)pyridine-2,6-diamine]: 0.93 nM and 90 nM.
With `C[C@H](Nc1cc(N2CCSCC2)cc(Nc2cnccn2)n1)c1ccc(F)cc1` [Example 40, (S)—N^2-[1-(4-Fluorophenyl)ethyl]-N^6-(pyrazin-2-yl)-4-thiomorpholinopyridine-2,6-diamine], the IC50 against JAK2 tyrosine kinase worked out at 3.4 nM; at JAK3 tyrosine kinase, 310 nM.
The matching figures for `C[C@H](Nc1cc(OCCCO)cc(Nc2cnccn2)n1)c1ccc(F)cc1` [Example 41, hydrochloride]: 1.1 nM and 51 nM.
For `CC(=O)NC1CN(c2cc(Nc3cnccn3)nc(N[C@@H](C)c3ccc(F)cc3)n2)C1` [Example 42, (S)—N-(1-{2-[1-(4-Fluorophenyl)ethylamino]-6-(pyrazin-2-ylamino)pyrimidin-4-yl}azetidin-3-yl)acetamide], in that order: 1 nM and 66 nM.
Consider `C[C@H](Nc1nc(Nc2cnccn2)cc(N2CCC2)n1)c1ccc(F)cc1` [Example 43, (S)-6-(Azetidin-1-yl)-N^2-[1-(4-fluorophenyl)ethyl]-N^4-(pyrazin-2-yl)pyrimidine-2,4-diamine], for which the concentration for half-maximal inhibition (IC50) against JAK2 tyrosine kinase was 1.2 nM; on JAK3 tyrosine kinase, 130 nM.
The matching figures for `C[C@H](Nc1nc(Nc2cnccn2)cc(N2CC(F)C2)n1)c1ccc(F)cc1` [Example 44, (S)-6-(3-Fluoroazetidin-1-yl)-N^2-[1-(4-fluorophenyl)ethyl]-N^4-(pyrazin-2-yl)pyrimidine-2,4-diamine]: 2.1 nM and 140 nM.
With `C[C@H](Nc1nc(Nc2cnccn2)cc(N2CCC2=O)n1)c1ccc(F)cc1` [Example 45, (S)-1-{2-[1-(4-Fluorophenyl)ethylamino]-6-(pyrazin-2-ylamino)pyrimidin-4-yl}azetidin-2-one], the IC50 on JAK2 tyrosine kinase was found to be 9 nM; against JAK3 tyrosine kinase it was 2300 nM.
Regarding `CCn1cc(-c2cc(Nc3cnccn3)nc(N[C@@H](C)c3ccc(F)cc3)c2)cn1` [Example 46, (S)-4-(1-Ethyl-1H-pyrazol-4-yl)-N^2-[1-(4-fluorophenyl)ethyl]-N^6-(pyrazin-2-yl)pyridine-2,6-diamine], the IC50 against JAK2 tyrosine kinase worked out at 3.7 nM; against JAK3 tyrosine kinase, 93 nM.
On to `C[C@H](Nc1cc(-c2ccnn2C)cc(Nc2cnccn2)n1)c1ccc(F)cc1` [Example 47, (S)—N^2-[1-(4-Fluorophenyl)ethyl]-4-(1-methyl-1H-pyrazol-5-yl)-N^6-(pyrazin-2-yl)pyridine-2,6-diamine], for which the IC50 on JAK2 tyrosine kinase turned out to be 12 nM; against JAK3 tyrosine kinase, 1300 nM.
With `C[C@H](Nc1cc(-c2cnn(CC3CC3)c2)cc(Nc2cnccn2)n1)c1ccc(F)cc1` [Example 48, (S)-4-[1-(Cyclopropylmethyl)-1H-pyrazol-4-yl]-N^2-[1-(4-fluorophenyl)ethyl]-N^6-(pyrazin-2-yl)pyridine-2,6-diamine], the IC50 against JAK2 tyrosine kinase stood at 6 nM; at JAK3 tyrosine kinase it was 140 nM.
For `C[C@H](Nc1nc(Nc2cnccn2)cc(-c2cncs2)n1)c1ccc(F)cc1` [Example 49, (S)—N^2-[1-(4-Fluorophenyl)ethyl]-N^4-(pyrazin-2-yl)-6-(thiazol-5-yl)pyrimidine-2,4-diamine], in that order: 2.3 nM and 170 nM.
For the molecule `C[C@H](Nc1nc(Nc2cnccn2)cc(-c2cncnc2)n1)c1ccc(F)cc1` [Example 52, (S)—N^2-[1-(4-Fluorophenyl)ethyl]-N^6-(pyrazin-2-yl)-4,5′-bipyrimidine-2,6-diamine], the half-maximal inhibitory concentration (IC50) at JAK2 tyrosine kinase worked out at 2 nM; at JAK3 tyrosine kinase it was 160 nM.
